From patent publication US8183415B2, “Methods of synthesizing cinacalcet and salts thereof” (Amgen, Inc., priority 2007, dated 2012)
Structures can show the parent of a compound that is named as a salt.

What was measured:
calcium-sensing receptor [1] = target: T1, calcium-sensing receptor (Homo sapiens, UniProt P41180); details: patients with parathyroid carcinoma; cited from earlier work
T1 construct: a calcium-sensing receptor on the cell surface of the parathyroid gland; from tissue; host or cells: parathyroid gland of patients (in vivo, clinical use)
T1 sequence (P41180 20-1078): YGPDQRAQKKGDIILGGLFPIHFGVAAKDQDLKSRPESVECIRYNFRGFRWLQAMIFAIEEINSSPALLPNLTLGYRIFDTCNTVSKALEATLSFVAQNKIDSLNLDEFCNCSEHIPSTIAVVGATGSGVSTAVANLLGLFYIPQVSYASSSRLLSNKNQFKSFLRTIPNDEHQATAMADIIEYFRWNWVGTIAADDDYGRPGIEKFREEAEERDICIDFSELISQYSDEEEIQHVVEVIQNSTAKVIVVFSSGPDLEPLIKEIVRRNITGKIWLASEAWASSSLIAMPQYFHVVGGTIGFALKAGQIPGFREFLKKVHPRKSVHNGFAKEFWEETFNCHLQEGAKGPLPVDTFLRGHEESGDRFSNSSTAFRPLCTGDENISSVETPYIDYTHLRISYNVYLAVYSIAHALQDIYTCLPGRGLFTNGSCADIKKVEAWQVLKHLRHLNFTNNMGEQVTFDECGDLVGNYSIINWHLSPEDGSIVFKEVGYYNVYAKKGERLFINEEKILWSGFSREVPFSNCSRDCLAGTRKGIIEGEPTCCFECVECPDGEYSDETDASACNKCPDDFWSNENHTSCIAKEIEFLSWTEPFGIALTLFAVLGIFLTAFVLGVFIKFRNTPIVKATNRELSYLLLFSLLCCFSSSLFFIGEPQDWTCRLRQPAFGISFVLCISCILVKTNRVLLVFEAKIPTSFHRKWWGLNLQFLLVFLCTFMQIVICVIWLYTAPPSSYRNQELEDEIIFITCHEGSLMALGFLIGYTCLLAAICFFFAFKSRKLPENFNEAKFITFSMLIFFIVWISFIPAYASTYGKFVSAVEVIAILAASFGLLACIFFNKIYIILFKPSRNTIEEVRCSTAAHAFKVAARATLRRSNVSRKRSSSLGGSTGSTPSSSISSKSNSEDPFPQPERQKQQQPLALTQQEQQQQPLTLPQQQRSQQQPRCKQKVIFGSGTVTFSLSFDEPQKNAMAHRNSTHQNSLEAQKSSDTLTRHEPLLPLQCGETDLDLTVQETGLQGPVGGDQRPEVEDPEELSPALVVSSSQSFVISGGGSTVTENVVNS

calcium-sensing receptor [2] = target: T1, calcium-sensing receptor; details: patients with chronic kidney disease on dialysis with secondary hyperparathyroidism; cited from earlier work

SMILES: C[C@@H](NCCCc1cccc(C(F)(F)F)c1)c1cccc2ccccc12.Cl [Form III]
- thermodynamic stability of crystalline form (variety of solvent systems and crystallization methods, XRPD): metastable form

SMILES: C[C@@H](NCCCc1cccc(C(F)(F)F)c1)c1cccc2ccccc12.Cl [Form II]
- stability of crystalline form (at room temperature): unstable

SMILES: C[C@@H](NCCCc1cccc(C(F)(F)F)c1)c1cccc2ccccc12 [Sensipar, N-[1-(R)-(−)-(1-naphthyl)ethyl]-3-[3-(trifluoromethyl)phenyl]-1-aminopropane hydrochloride]
- effect on calcium levels (calcium-sensing receptor [1]): reduce high levels of calcium
- therapeutic efficacy (calcium-sensing receptor [2]): therapeutically effective
